Data: paper PMC6162447, “Engineering Gain-of-Function Analogues of the Spider Venom Peptide HNTX-I, A Potent Blocker of the hNaV1.7 Sodium Channel” (Toxins, 2018)
Bridge positions count the residues as written; N and C are the ends. Peptide text beside a SMILES is read from it.

Target: T1, hNaV1.7 (Homo sapiens, UniProt Q15858)
T1 construct: expressed in transfected cells; host or cells: HEK 293
Assay: Whole-cell patch clamp on hNaV1.7 expressed in HEK 293 cells
Type: cell-based
Details: for IC50: HEK 293 cells transfected with hNaV1.7 plus human β1 and β2 subunits, room temperature (20–25 °C), 50 ms depolarization to −10 mV from holding −100 mV, mean ± SEM; for Activity on NaV1.7 at a concentration of 10 µM: 10 µM peptide, HEK 293 cells (Figure 2A–C)
Description: We maintained human embryonic kidney (HEK) 293 cells at 37 °C in a humidified 5% CO2 incubator in Dulbecco’s Modified Eagle’s Medium (DMEM) supplemented with 10% fetal bovine serum (FBS), 2 mM L-glutamine, 100 units/mL penicillin and 100 µg/mL streptomycin. cDNA genes encoding rat Nav1.2 and mouse Nav1.6 were subcloned into the vectors pcDNA3.1, respectively. We subcloned the gene that encodes hNaV1.7 into the vector pcDNA3.1-mod. We transfected the hNaV1.7 channel (3 μg) together with plasmids β1- (1 μg) and β2-eGFP ([…]), which encode the human β1 and β2 subunits, and Nav1.2 and Nav1.6 together with eGFP in HEK 293 cells using Lipofectamine 2000 (Invitrogen, Carlsbad, CA, USA) per the manufacturer’s instructions.
We performed whole-cell recordings using an EPC 10 patch clamp platform (HEKA, Elektronik, Lambrecht, Germany) at room temperature (20–25 °C). We made suction pipettes with access resistance of 2.0–3.0 MΩ from borosilicate glass capillary tubes (VWR micropipettes; VWR Co., West Chester, PA, USA) using a 2-step vertical microelectrode puller (PC-10; Narishige Co., Ltd., Tokyo, Japan) and compensated for voltage errors using 80% serial-resistance compensation. The standard pipette solution contained (in mM): 140 CsCl, 10 NaCl, 1 ethylene glycol-bis (β-aminoethyl ether)-N,N,N′,N′-tetraacetic acid (EGTA), and 10 HEPES (pH 7.4). The bath solution contained (in mM): 140 NaCl, 2 CaCl2, 1 MgCl2, 5 KCl, 20 4-(2-hydroxyethyl)-1-piperazineethanesulfonic acid (HEPES) and 10 glucose (pH 7.4). We purchased all chemicals from Sigma-Aldrich (St. Louis, MO, USA) and dissolved them in water. Data were acquired using PATCHMASTER software version 2x73 (HEKA Elektronik Dr. Schulze GmbH, Lambrecht, Germany). We filtered macroscopic sodium currents at 5 kHz and sampled them at 20 kHz. We acquired voltage clamp recordings 5 min after establishing a whole-cell configuration to allow adequate equilibration between the micropipette solution and the cell interior. We elicited channel current by 50 milliseconds of depolarization potential to −10 mV from the holding voltage of −100 mV.
We analyzed the data using Igor Pro software version 6.10A (WaveMetrics, Lake Oswego, OR, USA), Sigmaplot software version 10 (Sigma, St. Louis, MO, USA), OriginPro software version 8 (OriginLab Corp., Northampton, MA, USA) and Prism software version 5 (GraphPad Software, San Diego, CA, USA). Concentration–response curves were fitted using the following Hill logistic equation:y = fmax − (fmax − fmin)/(1 + (x/IC50)^n)(1) where fmax and fmin respectively represent the channel’s maximum and minimum responses to toxins, fmin was set to 0, x represents toxin concentration and n is an empirical Hill coefficient. All quantitative results are presented as mean ± standard error of the mean (SEM).

T1 sequence (O60939 30-215): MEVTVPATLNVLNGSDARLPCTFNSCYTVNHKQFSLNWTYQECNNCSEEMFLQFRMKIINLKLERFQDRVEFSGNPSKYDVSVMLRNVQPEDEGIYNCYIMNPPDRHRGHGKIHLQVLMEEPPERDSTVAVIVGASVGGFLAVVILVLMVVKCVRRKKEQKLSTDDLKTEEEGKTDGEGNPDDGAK
T1 sequence (Q07699 19-218, further chain): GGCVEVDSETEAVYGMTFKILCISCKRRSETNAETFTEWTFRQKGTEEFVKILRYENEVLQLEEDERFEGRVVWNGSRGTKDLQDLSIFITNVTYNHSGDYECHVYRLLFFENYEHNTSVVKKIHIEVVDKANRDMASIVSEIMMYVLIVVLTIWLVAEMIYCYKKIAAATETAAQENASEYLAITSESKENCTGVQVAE
T1 sequence (Q15858 other isoform, or with tags, fused parts or gaps): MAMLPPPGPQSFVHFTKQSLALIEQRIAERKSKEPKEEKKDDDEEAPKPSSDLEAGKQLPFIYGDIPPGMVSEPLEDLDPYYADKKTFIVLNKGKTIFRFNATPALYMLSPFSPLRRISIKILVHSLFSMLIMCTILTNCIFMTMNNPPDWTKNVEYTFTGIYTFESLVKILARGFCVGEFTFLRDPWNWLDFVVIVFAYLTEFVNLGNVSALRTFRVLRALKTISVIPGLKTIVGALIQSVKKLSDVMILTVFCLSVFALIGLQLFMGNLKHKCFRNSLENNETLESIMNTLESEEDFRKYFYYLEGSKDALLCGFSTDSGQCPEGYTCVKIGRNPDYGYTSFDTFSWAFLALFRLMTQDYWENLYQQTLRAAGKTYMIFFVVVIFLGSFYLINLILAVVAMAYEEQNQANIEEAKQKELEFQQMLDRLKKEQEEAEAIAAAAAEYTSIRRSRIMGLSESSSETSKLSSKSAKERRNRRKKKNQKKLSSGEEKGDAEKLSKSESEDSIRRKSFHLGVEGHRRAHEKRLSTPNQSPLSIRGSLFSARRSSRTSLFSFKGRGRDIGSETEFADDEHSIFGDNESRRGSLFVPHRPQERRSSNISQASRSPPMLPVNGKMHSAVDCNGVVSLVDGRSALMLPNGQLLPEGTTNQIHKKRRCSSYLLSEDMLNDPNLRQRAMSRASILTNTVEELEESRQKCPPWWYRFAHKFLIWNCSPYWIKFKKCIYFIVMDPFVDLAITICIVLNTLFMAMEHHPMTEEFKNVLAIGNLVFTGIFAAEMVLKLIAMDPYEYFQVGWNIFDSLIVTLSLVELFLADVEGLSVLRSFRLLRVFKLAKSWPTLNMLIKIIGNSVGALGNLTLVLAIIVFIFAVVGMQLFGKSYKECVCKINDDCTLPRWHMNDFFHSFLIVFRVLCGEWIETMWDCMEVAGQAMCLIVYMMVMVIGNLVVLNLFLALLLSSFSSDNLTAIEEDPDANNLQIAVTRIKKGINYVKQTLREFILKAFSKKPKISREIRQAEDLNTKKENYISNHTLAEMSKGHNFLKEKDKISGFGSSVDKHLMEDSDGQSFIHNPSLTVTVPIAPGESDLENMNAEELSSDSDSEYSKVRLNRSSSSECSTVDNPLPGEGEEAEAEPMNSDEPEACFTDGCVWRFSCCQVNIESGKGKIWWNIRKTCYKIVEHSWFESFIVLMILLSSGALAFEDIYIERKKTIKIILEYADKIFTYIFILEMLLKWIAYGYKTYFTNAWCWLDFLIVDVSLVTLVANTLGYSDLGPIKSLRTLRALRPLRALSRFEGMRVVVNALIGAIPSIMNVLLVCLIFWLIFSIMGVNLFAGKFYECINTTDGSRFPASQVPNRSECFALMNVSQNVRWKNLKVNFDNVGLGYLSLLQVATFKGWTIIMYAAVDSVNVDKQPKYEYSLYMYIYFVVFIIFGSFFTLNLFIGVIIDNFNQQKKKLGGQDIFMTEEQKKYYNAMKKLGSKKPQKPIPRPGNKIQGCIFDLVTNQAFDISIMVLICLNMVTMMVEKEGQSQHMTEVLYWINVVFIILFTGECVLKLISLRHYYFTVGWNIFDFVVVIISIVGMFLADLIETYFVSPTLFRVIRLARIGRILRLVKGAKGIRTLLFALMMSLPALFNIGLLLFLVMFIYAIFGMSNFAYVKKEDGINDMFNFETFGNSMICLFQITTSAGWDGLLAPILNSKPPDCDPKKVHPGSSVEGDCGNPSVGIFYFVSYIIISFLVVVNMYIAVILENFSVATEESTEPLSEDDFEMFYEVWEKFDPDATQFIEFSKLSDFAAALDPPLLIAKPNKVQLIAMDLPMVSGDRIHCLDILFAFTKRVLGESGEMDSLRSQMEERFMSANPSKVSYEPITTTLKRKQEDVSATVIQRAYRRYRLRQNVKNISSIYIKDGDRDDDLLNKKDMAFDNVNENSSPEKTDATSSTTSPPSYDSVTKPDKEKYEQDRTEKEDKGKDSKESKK

Structure (SMILES) | IC50 (n ≥ 3, SEM) [µM] | Activity on NaV1.7 at a concentration of 10 µM | IC50 (n ≥ 3) [µM]
CC(C)C[C@H](NC(=O)[C@H](CC(C)C)NC(=O)[C@@H](NC(=O)[C@H](CCCCN)NC(=O)[C@@H]1CSSC[C@@H]2NC(=O)[C@H](CCC(=O)O)NC(=O)[C@H](CC(N)=O)NC(=O)[C@H](CCCCN)NC(=O)CNC(=O)[C@@H]3CCCN3C(=O)[C@H](C(C)C)NC(=O)[C@@H]3CSSC[C@H](NC(=O)[C@H](C)NC(=O)[C@H](Cc4ccc(O)cc4)NC(=O)CNC(=O)[C@H](CO)NC(=O)[C@H](CSSC[C@H](NC(=O)[C@@H](N)CCC(=O)O)C(=O)N[C@@H](CCCCN)C(=O)NCC(=O)N[C@@H](Cc4ccccc4)C(=O)NCC(=O)N[C@@H](CCCCN)C(=O)N[C@@H](CO)C(=O)N3)NC2=O)C(=O)N[C@@H](CC(N)=O)C(=O)N[C@@H](CO)C(=O)N[C@@H](CCCNC(=N)N)C(=O)N[C@@H](Cc2c[nH]cn2)C(=O)N[C@@H](CCCCN)C(=O)N[C@@H](Cc2c[nH]c3ccccc23)C(=O)N1)C(C)C)C(=O)O [D26H] (H-ECKGFGKSCVPGKNECCSGYACNSRHKWCKVLL-OH; disulfide 2-17, 9-22, 16-29) | 1.5 ± 0.093 | – | –
CC(C)C[C@H](NC(=O)[C@H](CC(C)C)NC(=O)[C@@H](NC(=O)[C@H](CCCCN)NC(=O)[C@@H]1CSSC[C@@H]2NC(=O)[C@H](CCC(=O)O)NC(=O)[C@H](CC(N)=O)NC(=O)[C@H](CCCCN)NC(=O)CNC(=O)[C@@H]3CCCN3C(=O)[C@H](C(C)C)NC(=O)[C@@H]3CSSC[C@H](NC(=O)[C@H](C)NC(=O)[C@H](Cc4ccc(O)cc4)NC(=O)CNC(=O)[C@H](CO)NC(=O)[C@H](CSSC[C@H](NC(=O)CN)C(=O)N[C@@H](CCCCN)C(=O)NCC(=O)N[C@@H](Cc4ccccc4)C(=O)NCC(=O)N[C@@H](CCCCN)C(=O)N[C@@H](CO)C(=O)N3)NC2=O)C(=O)N[C@@H](CC(N)=O)C(=O)N[C@@H](CO)C(=O)N[C@@H](CCCNC(=N)N)C(=O)N[C@@H](CC(=O)O)C(=O)N[C@@H](CCCCN)C(=O)N[C@@H](Cc2c[nH]c3ccccc23)C(=O)N1)C(C)C)C(=O)O [E1G] (H-GCKGFGKSCVPGKNECCSGYACNSRDKWCKVLL-OH; disulfide 2-17, 9-22, 16-29 (inferred); N-terminus and C-terminus assumed) | – | negligible activity | > 10
CC(C)C[C@H](NC(=O)[C@H](CC(C)C)NC(=O)[C@@H](NC(=O)[C@H](CCCCN)NC(=O)[C@@H]1CSSC[C@@H]2NC(=O)[C@H](CCC(=O)O)NC(=O)[C@H](CC(N)=O)NC(=O)[C@H](CCCCN)NC(=O)CNC(=O)[C@@H]3CCCN3C(=O)[C@H](C(C)C)NC(=O)[C@@H]3CSSC[C@H](NC(=O)[C@H](C)NC(=O)[C@H](Cc4ccc(O)cc4)NC(=O)CNC(=O)[C@H](CO)NC(=O)[C@H](CSSC[C@H](NC(=O)CN)C(=O)N[C@@H](CCCCN)C(=O)NCC(=O)N[C@@H](Cc4ccccc4)C(=O)NCC(=O)N[C@@H](CCCCN)C(=O)N[C@@H](CO)C(=O)N3)NC2=O)C(=O)N[C@@H](CO)C(=O)N[C@@H](CO)C(=O)N[C@@H](CCCNC(=N)N)C(=O)N[C@@H](Cc2c[nH]cn2)C(=O)N[C@@H](CCCCN)C(=O)N[C@@H](Cc2c[nH]c3ccccc23)C(=O)N1)C(C)C)C(=O)O [E1G–N23S–D26H] (H-GCKGFGKSCVPGKNECCSGYACSSRHKWCKVLL-OH; disulfide 2-17, 9-22, 16-29) | 0.179 ± 0.024 | – | –
CC(C)C[C@H](NC(=O)[C@H](Cc1c[nH]c2ccccc12)NC(=O)[C@@H](NC(=O)[C@H](CCCCN)NC(=O)[C@@H]1CSSC[C@@H]2NC(=O)[C@H](CCC(=O)O)NC(=O)[C@H](CC(N)=O)NC(=O)[C@H](CCCCN)NC(=O)CNC(=O)[C@@H]3CCCN3C(=O)[C@H](C(C)C)NC(=O)[C@@H]3CSSC[C@H](NC(=O)[C@H](C)NC(=O)[C@H](Cc4ccc(O)cc4)NC(=O)CNC(=O)[C@H](CO)NC(=O)[C@H](CSSC[C@H](NC(=O)CN)C(=O)N[C@@H](CCCCN)C(=O)NCC(=O)N[C@@H](Cc4ccccc4)C(=O)NCC(=O)N[C@@H](CCCCN)C(=O)N[C@@H](CO)C(=O)N3)NC2=O)C(=O)N[C@@H](CO)C(=O)N[C@@H](CO)C(=O)N[C@@H](CCCNC(=N)N)C(=O)N[C@@H](Cc2c[nH]cn2)C(=O)N[C@@H](CCCCN)C(=O)N[C@@H](Cc2c[nH]c3ccccc23)C(=O)N1)C(C)C)C(=O)O [E1G–N23S–D26H–L32W] (H-GCKGFGKSCVPGKNECCSGYACSSRHKWCKVWL-OH; disulfide 2-17, 9-22, 16-29) | 0.036 ± 0.007 | – | –
CC(C)C[C@H](NC(=O)[C@H](CC(C)C)NC(=O)[C@@H](NC(=O)[C@H](CCCCN)NC(=O)[C@@H]1CSSC[C@@H]2NC(=O)[C@H](CCC(=O)O)NC(=O)[C@H](CC(N)=O)NC(=O)[C@H](CCCCN)NC(=O)CNC(=O)[C@@H]3CCCN3C(=O)[C@H](C(C)C)NC(=O)[C@@H]3CSSC[C@H](NC(=O)[C@H](C)NC(=O)[C@H](Cc4ccc(O)cc4)NC(=O)CNC(=O)[C@H](CO)NC(=O)[C@H](CSSC[C@H](NC(=O)CN)C(=O)N[C@@H](CCCCN)C(=O)NCC(=O)N[C@@H](Cc4ccccc4)C(=O)NCC(=O)N[C@@H](CCCCN)C(=O)N[C@@H](CO)C(=O)N3)NC2=O)C(=O)N[C@@H](CC(N)=O)C(=O)N[C@@H](CO)C(=O)N[C@@H](CCCCN)C(=O)N[C@@H](Cc2c[nH]cn2)C(=O)N[C@@H](CCCCN)C(=O)N[C@@H](Cc2c[nH]c3ccccc23)C(=O)N1)C(C)C)C(=O)O [E1G–R25K–D26H] (H-GCKGFGKSCVPGKNECCSGYACNSKHKWCKVLL-OH; disulfide 2-17, 9-22, 16-29) | 0.766 ± 0.029 | – | –
CC(C)C[C@H](NC(=O)[C@H](Cc1c[nH]c2ccccc12)NC(=O)[C@@H](NC(=O)[C@H](CCCCN)NC(=O)[C@@H]1CSSC[C@@H]2NC(=O)[C@H](CCC(=O)O)NC(=O)[C@H](CC(N)=O)NC(=O)[C@H](CCCCN)NC(=O)CNC(=O)[C@@H]3CCCN3C(=O)[C@H](C(C)C)NC(=O)[C@@H]3CSSC[C@H](NC(=O)[C@H](C)NC(=O)[C@H](Cc4ccc(O)cc4)NC(=O)CNC(=O)[C@H](CO)NC(=O)[C@H](CSSC[C@H](NC(=O)CN)C(=O)N[C@@H](CCCCN)C(=O)NCC(=O)N[C@@H](Cc4ccccc4)C(=O)NCC(=O)N[C@@H](CCCCN)C(=O)N[C@@H](CO)C(=O)N3)NC2=O)C(=O)N[C@@H](CC(N)=O)C(=O)N[C@@H](CO)C(=O)N[C@@H](CCCCN)C(=O)N[C@@H](Cc2c[nH]cn2)C(=O)N[C@@H](CCCCN)C(=O)N[C@@H](Cc2c[nH]c3ccccc23)C(=O)N1)C(C)C)C(=O)O [E1G–R25K–D26H–L32W] (H-GCKGFGKSCVPGKNECCSGYACNSKHKWCKVWL-OH; disulfide 2-17, 9-22, 16-29) | 0.669 ± 0.07 | – | –
CC(C)C[C@H](NC(=O)[C@H](Cc1c[nH]c2ccccc12)NC(=O)[C@@H](NC(=O)[C@H](CCCCN)NC(=O)[C@@H]1CSSC[C@@H]2NC(=O)[C@H](CCC(=O)O)NC(=O)[C@H](CC(N)=O)NC(=O)[C@H](CCCCN)NC(=O)CNC(=O)[C@@H]3CCCN3C(=O)[C@H](C(C)C)NC(=O)[C@@H]3CSSC[C@H](NC(=O)[C@H](C)NC(=O)[C@H](Cc4ccc(O)cc4)NC(=O)CNC(=O)[C@H](CO)NC(=O)[C@H](CSSC[C@H](NC(=O)[C@@H](N)CCC(=O)O)C(=O)N[C@@H](CCCCN)C(=O)NCC(=O)N[C@@H](Cc4ccccc4)C(=O)NCC(=O)N[C@@H](CCCCN)C(=O)N[C@@H](CO)C(=O)N3)NC2=O)C(=O)N[C@@H](CC(N)=O)C(=O)N[C@@H](CO)C(=O)N[C@@H](CCCNC(=N)N)C(=O)N[C@@H](CC(=O)O)C(=O)N[C@@H](CCCCN)C(=O)N[C@@H](Cc2c[nH]c3ccccc23)C(=O)N1)C(C)C)C(=O)O [L32W] (H-ECKGFGKSCVPGKNECCSGYACNSRDKWCKVWL-OH; disulfide 2-17, 9-22, 16-29 (inferred); N-terminus and C-terminus assumed) | – | negligible activity | > 10
